Common to all, as to assay type: cell-based, human
One assay deals with mda-4. As to the kind of experiment: mda-4 expression (Northern blotting). The note with it: H0-1; 24 hours; doses of FIG. 19; phenyl butyrate 24 hours, 4 days or 7 days. How it is done: (§1) The mass excision of the library was performed using ExAssist helper phage as described above. The SOLR strain of Escherichia coli and cDNA phagemids were mixed at 37° C. for 15 min and plated onto LB plates containing ampicillin and IPTG/X-gal. White colonies were chosen at random, isolated and grown in LB medium. Plasmid minireps and restriction enzyme digestions were performed to confirm the presence of inserts. The inserts were isolated and used as robes for Northern blotting analysis (5,25). […] Radiolabeled probes were generated by random oligonucleotide priming (25). Prehybridization, hybridization, posthybridization washes, and autoradiography were performed as described (5,18,25).

A further assay has as its system mda-5. As to the kind of experiment: mda-5 expression (Northern blotting). The following applies: H0-1; 24 hours; doses of FIG. 19; phenyl butyrate 24 hours, 4 days or 7 days. How it is done:
as §1

The test system of another assay is mda-6. As to the kind of experiment: mda-6 expression (Northern blotting). The note with it: H0-1. How it is done: as §1
Total cytoplasmic RNA was isolated and Northern blotting hybridization was performed as described (Reddy et al., 1991; Su et al., 1991; Jiang et al., 1992). Ten μg of RNA was denatured with glyoxal/DMSO, electrophoresed on 1.0% agarose gels, transferred to nylon membranes and hybridized to a ^32P-labeled p53 probe (Baker et al., 1990). The nylon membrane was stripped and hybridized to a ^32P-labeled mda-6 probe (Jiang and Fisher, 1993) and then after a second stripping the membrane was hybridized to a ^32P-labeled rat GAPDH probe (Fort et al., 1985), as described previously (Reddy et al., 1991; Su et al., 1991; Jiang et al., 1992). Following hybridization, the filters were washed and exposed for autoradiography (Reddy et al., 1991; Su et al., 1991; Jiang et al., 1992). mda-6 and GAPDH gene expression were also determined by reverse transcription-polymerase chain reaction (RT-PCR) as described (Adollahi et al., 1991; Lin et al., 1994; Jiang et al., 1994b). Total cytoplasmic RNA was treated with 0.5 units DNase (Boehringer-Mannheim Biochemicals)/μg RNA in 15% glycerol, 10 mM Tris, pH 7.5, 2.5 mM MgCl2, 0.1 mM EDTA, 80 mM KCl, 1 mM CaCl2 and 1 unit/ml RNasin (Promega) at 30° C. for 10 min. RNA was extracted with phenol-chloroform, precipitated with sodium acetate/ethanol and RNA pellets were resuspended in diethylpyrocarbonate-treated H2O. One μg of total RNA was reverse transcribed with 200 units of murine leukemia virus reverse transcriptase (Bethesda Research Laboratories) in 20 μl containing 1 mM deoxyribonucleotide triphosphates, 4 mM MgCl2, 10 mM Tris, pH 8.3, 50 mM KCl, 0.001% gelatin and 0.2 μg oligo-dT primer. Samples were adjusted to 100 μl with buffer containing 0.2 mM deoxyribonucleotide triphosphates, 2 mM MgCl2, 10 mM Tris, pH 8.3, 50 mM KCl and 0.001% gelatin. Fifty pmol of each primer, 1.5 units Taq DNA polymerase (Perkin-Elmer Cetus) were added and samples were covered with mineral oil, heated at 95° C. for 5 min and subjected to 25 cycles of PCR in a Perkin-Elmer Thermal Cycler using 1 min denaturation at 94° C., 2 min annealing at 55° C. and 3 min polymerization at 72° C. After extraction with chloroform, 20 μl of products were electrophoresed, blotted onto nylon filters and hybridized with an mda-6 or GAPDH specific probe. The mda-6 primers were 5′ to 3′ […] (SEQ ID NO:26) and […] (SEQ ID NO:27)(corresponding to nt 1527 to 1546) (GenBank accession number U09579); and the GAPDH primers were 5′ to 3′ […] (SEQ ID NO:28)and […] (SEQ ID NO:29)(corresponding to nt 1070 to 1053) (Tokunaga et al., 1987).

The test system of another assay is mda-7. As to the kind of experiment: mda-7 expression (Northern blotting, RT-PCR). The following applies: for mda-7 expression: H0-1, 24 hours, doses of FIG. 19, phenyl butyrate 24 hours, 4 days or 7 days. The method, then: as §1
Another assay has as its system mda-8. Kind of assay: mda-8 expression (Northern blotting). The note with it: H0-1; 24 hours; doses of FIG. 19; phenyl butyrate 24 hours, 4 days or 7 days. The method, then:
as §1

The next assay deals with mda-9. Kind of assay: mda-9 expression (Northern blotting). The following applies: H0-1; 24 hours; doses of FIG. 19; phenyl butyrate 24 hours, 4 days or 7 days. How it is done: as §1
[1] abbreviates: 24 hours, doses of FIG. 19, phenyl butyrate 24 hours, 4 or 7 days.

Starred links: 1 amine or outer side, 2 acyl side, 3 side chain; linkers in the order of their positions; H or OH if unused. Positions of bridges follow the written chain, without caps; N, C: chain ends. Non-standard residues stand in square brackets, D forms with d. Residues, ends and D or L forms follow the SMILES beside them. Chains are numbered I, II in the order given. Actinocin(9to1) = Cc1c2oc3c(C)ccc(C(=O)[*:1])c3nc-2c(C(=O)[*:2])c(N)c1=O; NMeV = CN[C@H](C(=O)O)C(C)C; Sar = CNCC(=O)O

Consider `CCCC(=O)Oc1ccccc1` [phenyl butyrate], for which the mda-4 expression result with mda-4 was “No or only a small change in expression”. The mda-5 expression result in the assay on mda-5 was “No change in expression”. Besides, in the assay with mda-6 (setting [1]), the mda-6 expression entry was “Decreased expression”. Also, in the assay on mda-7, the mda-7 expression entry is listed as “No induction in mda-7 expression”. Also, in the assay with mda-8, the mda-8 expression result is given as “No change in expression”. Besides, in the assay on mda-9, the mda-9 expression entry was “Increased expression”.

Consider `CC[C@]1(O)C[C@H]2CN(CCc3c([nH]c4ccccc34)[C@@](C(=O)OC)(c3cc4c(cc3OC)N(C=O)[C@H]3[C@@](O)(C(=O)OC)[C@H](OC(C)=O)[C@]5(CC)C=CCN6CC[C@]43[C@@H]65)C2)C1` [vincristine, Vincristine], for which, in the assay with mda-4, the mda-4 expression result is reported as “No or only a small change in expression”. Moreover, the mda-5 expression result in the assay with mda-5 was “No change in expression”. Further, the mda-6 expression entry with mda-6 (setting [1]) was “No change in mda-6 expression”. Also, in the assay on mda-7, the mda-7 expression entry was “increased mda-7 expression”. The mda-8 expression result with mda-8 is on record as “No change in expression”. Also, in the assay on mda-9, the mda-9 expression result is reported as “No change in mda-9 expression”.

With `COS(C)(=O)=O` [methyl methanesulfonate], the mda-6 expression result in the assay on mda-6 (2 h exposure to 25 μg/ml) is “Elevated mda-6 expression”.

On to `Cc1c2oc3c(C)ccc(C(=O)N[C@@H]4C(=O)N[C@H](C(C)C)C(=O)N5CCC[C@H]5C(=O)N(C)CC(=O)N(C)[C@@H](C(C)C)C(=O)O[C@@H]4C)c3nc-2c(C(=O)N[C@@H]2C(=O)N[C@H](C(C)C)C(=O)N3CCC[C@H]3C(=O)N(C)CC(=O)N(C)[C@@H](C(C)C)C(=O)O[C@@H]2C)c(N)c1=O` [actinomycin D] (I: T[dV]P[Sar][NMeV] / II: T[dV]P[Sar][NMeV]; ester I:1-I:C, II:1-II:C; linker I:N-II:N via Actinocin(9to1)), for which, in the assay with mda-4, the mda-4 expression result is recorded as “No or only a small change in expression”. For the same molecule, the mda-5 expression result with mda-5 is reported as “No change in expression”. For the same molecule, the mda-6 expression entry in the assay on mda-6 (setting [1]) is “increased expression”. Further, in the assay with mda-7, the mda-7 expression result is “No induction in mda-7 expression”. In the assay with mda-8, the mda-8 expression result was “Increased expression”. Also, the mda-9 expression result in the assay with mda-9 is reported as “No change in mda-9 expression”.

Consider phenylacetate, for which the “mda-7 expression (RT-PCR)” value in the assay with mda-7 (LAN human neuroblastoma cells, 5 days) is “induced”.

Consider IFN-α, for which the mda-4 expression entry in the assay with mda-4 is given as “increased expression”. In addition, the mda-5 expression result in the assay with mda-5 was “increased expression”. For the same molecule, the mda-6 expression result with mda-6 (setting [1]) is recorded as “Decreased expression”. Further, the mda-7 expression entry in the assay with mda-7 is “No induction in mda-7 expression”. The mda-8 expression entry with mda-8 is “No change in expression”. In the assay with mda-9, the mda-9 expression entry is listed as “Increased expression”.

For `N.N.[Cl][Pt][Cl]` [cis-platinum], the mda-4 expression entry in the assay with mda-4 was “increased expression”. Moreover, in the assay with mda-5, the mda-5 expression result is given as “No change in expression”. The mda-6 expression result in the assay on mda-6 (setting [1]) is “Decreased expression”. For the same molecule, the mda-7 expression entry with mda-7 is recorded as “No induction in mda-7 expression”. Besides, the mda-8 expression result in the assay on mda-8 is recorded as “Increased expression”. Moreover, the mda-9 expression result in the assay with mda-9 is given as “No change in mda-9 expression”.

`COc1cc([C@@H]2c3cc4c(cc3[C@@H](O[C@@H]3O[C@@H]5CO[C@@H](C)O[C@H]5[C@H](O)[C@H]3O)[C@H]3COC(=O)[C@H]23)OCO4)cc(OC)c1O` [VP-16]: in the assay on mda-4, the mda-4 expression result was “No or only a small change in expression”. The mda-5 expression result in the assay with mda-5 was “No change in expression”. Besides, the mda-6 expression entry in the assay on mda-6 (setting [1]) is given as “increased expression”. The mda-7 expression entry in the assay with mda-7 is given as “No induction in mda-7 expression”. Besides, in the assay with mda-8, the mda-8 expression entry is on record as “No change in expression”. For the same molecule, the mda-9 expression entry in the assay on mda-9 is recorded as “Increased expression”.

Consider `COc1cccc2c1C(=O)c1c(O)c3c(c(O)c1C2=O)C[C@@](O)(C(=O)CO)C[C@@H]3O[C@H]1C[C@H](N)[C@H](O)[C@H](C)O1` [adriamycin, Adriamycin], for which the mda-4 expression result in the assay on mda-4 is listed as “No or only a small change in expression”. Further, the mda-5 expression result in the assay with mda-5 is given as “No change in expression”. The mda-6 expression result in the assay with mda-6 (setting [1]) is reported as “increased expression”. Moreover, the mda-7 expression result in the assay with mda-7 is listed as “increased mda-7 expression”. For the same molecule, in the assay on mda-8, the mda-8 expression result is recorded as “Increased expression”.

On to TNF-α, for which, in the assay on mda-4, the mda-4 expression entry was “No or only a small change in expression”. Moreover, the mda-5 expression result in the assay with mda-5 was “No change in expression”. In addition, the mda-6 expression result in the assay with mda-6 (setting [1]) was “Decreased expression”. The mda-7 expression result in the assay on mda-7 was “No induction in mda-7 expression”. The mda-8 expression result with mda-8 was “No change in expression”. Also, in the assay on mda-9, the mda-9 expression result was “Increased expression”.

Source of the values: US7507792B2, “MDA-7 proteins and methods of use thereof” (The Trustees of Columbia University In The City of New York, priority 1993, dated 2009).
